From patent publication US10709714B2 (CL BioSciences LLC, priority 2013, dated 2020)
“Also recorded” adds a separate entry of the source. Marks after values point to notes of the source that are not given here.

Assays:
[1] = test system: calvarial osteoblasts, hFOB, BMMSCs; experiment: Gene expression in bone-derived cells (ALKP, M-CSF, RANKL); type: cell-based, mouse, human; details: YF476 1 nM, preincubation
Experimental: This was reversed by the selective CCK2 receptor antagonist, YF476 (1 nM).

[2] = molecular target: T1, CCK2 receptor (Homo sapiens, UniProt P32239); experiment: Gastrin-stimulated cAMP production and calcitonin release/transcription in MTC-SK cells; type: cell-based; details: MTC-SK cells
T1 construct: Gastrin stimulated both cAMP as well as calcitonin release from the well-differentiated human MTC cell line, MTC-SK; endogenous in cells; host or cells: MTC-SK (human medullary thyroid carcinoma cell line)
T1 sequence (P32239 1-447): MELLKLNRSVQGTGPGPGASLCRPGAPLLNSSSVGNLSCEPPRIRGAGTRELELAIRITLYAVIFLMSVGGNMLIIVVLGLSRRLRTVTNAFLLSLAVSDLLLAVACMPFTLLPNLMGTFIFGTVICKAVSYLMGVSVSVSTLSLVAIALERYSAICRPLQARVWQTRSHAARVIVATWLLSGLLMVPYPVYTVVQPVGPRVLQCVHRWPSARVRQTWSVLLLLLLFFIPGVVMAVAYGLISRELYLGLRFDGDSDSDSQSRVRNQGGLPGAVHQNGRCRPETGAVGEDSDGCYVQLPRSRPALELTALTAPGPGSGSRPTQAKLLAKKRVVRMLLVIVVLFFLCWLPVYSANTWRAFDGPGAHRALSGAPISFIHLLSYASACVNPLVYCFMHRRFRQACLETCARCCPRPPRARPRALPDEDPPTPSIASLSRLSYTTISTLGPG

[3] = test system: ovariectomized Mastomys; experiment: Bone histomorphometry, Model 3 Mastomys OVX; type: in vivo; details: GA single s.c., 8 weeks
Text: Patterns of bone mineralization (BM: decreased), resorption cavities (RC: increased) and osteoclasts (stained multinuclear cells (two arrows): increased) were affected by OVX. These effects were reversed by drug treatment.
The gastrin-antagonist treatment reversed these phenomena (FIG. 55).

[4] = test system: ovariectomized CD rats; experiment: Circulating blood markers, Model 2 rat OVX; type: in vivo
Experimental: Ovariectomy increased PINP and osteocalcin. […] CON=control animals, OVX=ovariectomized animals, OVX+GA=gastrin antagonist treated ovariectomized animals. Mean±SEM. *p<0.05 vs. CON, **p<0.05 vs. OVX alone.
Circulating bone biomarkers were also altered by OVX. Specifically, both PINP (0.57±0.18 ng/ml vs. 0.35±0.06, p<0.05) and osteocalcin was elevated (1.35±0.9 ng/ml vs. 0.43±0.07, p<0.05). Treatment with the antagonist attenuated each of these ovariectomy-mediated alterations.

[5] = test system: ovariectomized CD-1 mice; experiment: Bone histomorphometry, Model 1 mouse OVX; type: in vivo; details: OVX CD-1 mice; GA single s.c.; 8 weeks
Text: Patterns of bone mineralization (BM: decreased), resorption cavities (RC: increased) and osteoclasts (stained multinuclear cells (two arrows): increased) were affected by OVX. These effects were reversed by drug treatment. In one aspect, this means that targeting CCK2 receptors normalizes bone morphology irrespective of low estrogen levels.
Gastrin-antagonist treatment reversed these phenomena (FIG. 45).

[6] = test system: ovariectomized CD rats; experiment: Bone histomorphometry, Model 2 rat OVX; type: in vivo; details: GA single s.c., 8 weeks
Text: These effects were reversed by drug treatment. In one aspect, this reflects that targeting CCK2 receptors normalizes bone morphology irrespective of low estrogen levels.
Gastrin-antagonist treatment reversed these phenomena (FIG. 50).

[7] = test system: calvarial osteoblasts, hFOB, BMMSCs; experiment: Proliferation (BrdU uptake) of bone-derived cells; type: cell-based, mouse, human; details: pre-incubation
[8] = test system: human PTH cells co-cultured with MTC-SK cell line; experiment: PTH cell / MTC-SK co-culture: PTH and calcitonin transcription and secretion; type: cell-based; details: preincubation 10 mins, YF476 10 nM
Experimental: Human PTH cells isolated from surgical specimens were co-cultured with the MTC-SK cell line. […] These effects could be reversed by preincubation (10 mins) with the selective CCK2 receptor antagonist, YF476 (10 nM). […] PET=polyester membrane ([…]).
These effects were reversed by preincubation with the selective CCK2 antagonist, YF476.

[9] = test system: calvarial osteoblasts, hFOB, BMMSCs; experiment: Bone mineralization of bone-derived cells (fluorescent binding to hydroxyapatite); type: cell-based, mouse, human; details: pre-incubation
Experimental: The binding of fluorescent Osteomalge to the hydroxyapatite portion of mineralized nodules was measured.

[10] = test system: ovariectomized CD-1 mice; experiment: Bone strength (Instron), Model 1 mouse OVX; type: in vivo
[11] = test system: ovariectomized Mastomys; experiment: MicroCT of trabecular and cortical bone, Model 3 Mastomys OVX; type: in vivo
[12] = OVX CD rats + omeprazole, GA 50 ug/animal single s.c., 8 weeks
[13] = OVX CD rats, GA-treated vs control
[14] = OVX CD-1 mice + omeprazole, GA 15 ug/animal single s.c., 8 weeks
[15] = OVX CD-1 mice, GA-treated vs control
[16] = OVX Mastomys + loxitidine, GA 10 ug/animal single s.c., 8 weeks, cortical bone
[17] = OVX Mastomys + loxitidine, GA 10 ug/animal single s.c., 8 weeks, trabecular bone
[18] = OVX Mastomys + loxitidine, GA 10 ug/animal single s.c., 8 weeks, trabecular bone, listed as GA
[19] = OVX Mastomys + loxitidine, GA 10 ug/animal single s.c., 8 weeks, trabecular bone, listed as Gastrin antagonist
[20] = OVX Mastomys, GA-treated vs control, cortical bone
[21] = OVX Mastomys, GA-treated vs control, trabecular bone

CNc1cccc(NC(=O)N[C@@H]2N=C(c3ccccn3)c3ccccc3N(CC(=O)C(C)(C)C)C2=O)c1 [YF476, netazepide]
effect on gastrin-inhibited gene expression [1]: reversed and normalized | effect on gastrin-mediated calcitonin secretion [2]: reversed | effect on gastrin-stimulated cAMP production [2]: reversed | effect alone on cAMP production ([2]; without gastrin): no significant effect | effect on OVX changes in bone mineralization, resorption cavities and TRAP-positive osteoclasts [3]: reversed | CTX1 [4, 12]: 0.42 | ESR (circulating estrogen) [4, 12]: 2.1 pg/mL | Gastrin (circulating) [4, 12]: 2971 pg/mL | Osteocalcin [4, 12]: 0.80 ng/mL | PINP [4, 12]: 0.48 ng/mL | PTH (circulating) [4, 12]: 1562 | % Change CTX1 [4, 13]: −49% | % Change ESR [4, 13]: −60%* | % Change Gastrin [4, 13]: +183%* | % Change Osteocalcin [4, 13]: +81%** | % Change PINP [4, 13]: +41% | % Change PTH [4, 13]: −15% | effect on OVX changes in bone mineralization, resorption cavities and TRAP-positive osteoclasts [5]: reversed | effect on OVX changes in bone mineralization, resorption cavities and TRAP-positive osteoclasts [6]: reversed | effect on gastrin-stimulated proliferation [7]: not inhibited; also recorded: not reversed | effect on gastrin effects in co-culture [8]: reversed | effect on gastrin inhibition of mineralization [9]: inhibited; also recorded: not reversed | Max Load [10, 14]: 44.1 | Stiffness [10, 14]: 285 | Total Work [10, 14]: 19.4 | Yield (Stiffness) [10, 14]: 256 | Fracture Load ([10]; OVX CD-1 mice + omeprazole, GA 15 ug/animal single s.c., 8 weeks, listed as GA): 42.8 | Fracture Load ([10]; OVX CD-1 mice + omeprazole, GA 15 ug/animal single s.c., 8 weeks, listed as gastrin antagonist): 43±6 | % Change Fracture Load [10, 15]: −24%* | % Change Max Load [10, 15]: −28%* | % Change Stiffness [10, 15]: −3%** | % Change Total Work [10, 15]: −4%** | % Change Yield (Stiffness) [10, 15]: −5%** | BS [11, 16]: 14.21 | BV/TV [11, 16]: 0.953 | Ct. Th [11, 16]: 0.288 | Dens (Apparent Density, cortical) [11, 16]: 1159 | pMOI [11, 16]: 1.10 | BS [11, 17]: 19.2 | BV/TV [11, 17]: 0.175 | Conns-Dens [11, 17]: 124.1 | SMI [11, 17]: 0.74 | Tb. Sp [11, 17]: 0.457 | Dens (Apparent Density, trabecular) [11, 18]: 187.1 | Tb. N [11, 18]: 2.38 | Tb. Th [11, 18]: 0.086 | Dens (Apparent Density, trabecular) [11, 19]: 187±66 | Tb. N [11, 19]: 2.4±0.6 | Tb. Th [11, 19]: 0.08±0.01 | % Change BS [11, 20]: −1% | % Change BV/TV [11, 20]: 0% | % Change Ct. Th [11, 20]: −1% | % Change Dens (Apparent Density, cortical) [11, 20]: −4% | % Change pMOI [11, 20]: −4% | % Change BS [11, 21]: +4%** | % Change BV/TV [11, 21]: +27%** | % Change Conns-Dens [11, 21]: +28% | % Change Dens (Apparent Density, trabecular) [11, 21]: +19%** | % Change SMI [11, 21]: 0% | % Change Tb. N [11, 21]: +18%** | % Change Tb. Sp [11, 21]: −20%** | % Change Tb. Th [11, 21]: +25%*^; **
